Data as given in ChEMBL document CHEMBL1152560, “Substituted 2-arylbenzothiazoles as kinase inhibitors: hit-to-lead optimization” (Bioorg Med Chem, 2009).

Tests used:
[1] = target: T1, Serine/threonine-protein kinase Sgk3 (Homo sapiens) (UniProt Q96BR1); experiment: Residual activity of SGK3 at 0.1 uM by microplate scintillation counting
T1 sequence (whole entry): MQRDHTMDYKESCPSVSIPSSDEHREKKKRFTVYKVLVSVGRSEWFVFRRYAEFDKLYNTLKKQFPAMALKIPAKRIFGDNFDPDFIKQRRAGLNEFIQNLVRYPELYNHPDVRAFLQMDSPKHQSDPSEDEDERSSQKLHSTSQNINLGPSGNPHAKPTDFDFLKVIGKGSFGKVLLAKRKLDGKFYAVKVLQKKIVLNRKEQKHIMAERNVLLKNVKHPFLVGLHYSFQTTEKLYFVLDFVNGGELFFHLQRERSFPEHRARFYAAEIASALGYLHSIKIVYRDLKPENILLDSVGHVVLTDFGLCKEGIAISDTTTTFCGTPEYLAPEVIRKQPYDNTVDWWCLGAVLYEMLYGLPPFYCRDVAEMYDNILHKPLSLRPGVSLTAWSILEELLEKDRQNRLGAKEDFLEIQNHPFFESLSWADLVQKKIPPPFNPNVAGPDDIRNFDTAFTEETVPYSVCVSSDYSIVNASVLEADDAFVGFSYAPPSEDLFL

[2] = target: Serine/threonine-protein kinase Chk2 (Homo sapiens) (UniProt O96017); experiment: Residual activity of CHK2 at 1 uM by microplate scintillation counting
Chain of Serine/threonine-protein kinase Chk2 (Homo sapiens) (O96017 whole entry): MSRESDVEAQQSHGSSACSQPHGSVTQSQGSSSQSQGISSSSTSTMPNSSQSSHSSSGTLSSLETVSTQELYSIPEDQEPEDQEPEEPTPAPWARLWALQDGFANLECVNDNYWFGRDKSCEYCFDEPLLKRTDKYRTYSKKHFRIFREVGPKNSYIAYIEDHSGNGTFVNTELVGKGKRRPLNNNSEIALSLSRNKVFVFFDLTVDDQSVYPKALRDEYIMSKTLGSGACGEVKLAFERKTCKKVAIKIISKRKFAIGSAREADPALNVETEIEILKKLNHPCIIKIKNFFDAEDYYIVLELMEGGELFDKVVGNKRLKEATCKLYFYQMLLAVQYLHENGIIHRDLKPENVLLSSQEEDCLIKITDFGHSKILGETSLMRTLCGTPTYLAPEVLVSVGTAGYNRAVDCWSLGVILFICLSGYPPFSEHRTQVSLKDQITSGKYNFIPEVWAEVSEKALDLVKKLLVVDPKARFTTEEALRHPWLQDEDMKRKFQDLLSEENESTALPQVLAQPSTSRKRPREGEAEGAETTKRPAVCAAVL

[3] = target: Insulin-like growth factor 1 receptor (Homo sapiens) (UniProt P08069); experiment: Residual activity of IGF1R at 10 uM by microplate scintillation counting
Chain of Insulin-like growth factor 1 receptor (Homo sapiens) (P08069 31-736 limits assumed): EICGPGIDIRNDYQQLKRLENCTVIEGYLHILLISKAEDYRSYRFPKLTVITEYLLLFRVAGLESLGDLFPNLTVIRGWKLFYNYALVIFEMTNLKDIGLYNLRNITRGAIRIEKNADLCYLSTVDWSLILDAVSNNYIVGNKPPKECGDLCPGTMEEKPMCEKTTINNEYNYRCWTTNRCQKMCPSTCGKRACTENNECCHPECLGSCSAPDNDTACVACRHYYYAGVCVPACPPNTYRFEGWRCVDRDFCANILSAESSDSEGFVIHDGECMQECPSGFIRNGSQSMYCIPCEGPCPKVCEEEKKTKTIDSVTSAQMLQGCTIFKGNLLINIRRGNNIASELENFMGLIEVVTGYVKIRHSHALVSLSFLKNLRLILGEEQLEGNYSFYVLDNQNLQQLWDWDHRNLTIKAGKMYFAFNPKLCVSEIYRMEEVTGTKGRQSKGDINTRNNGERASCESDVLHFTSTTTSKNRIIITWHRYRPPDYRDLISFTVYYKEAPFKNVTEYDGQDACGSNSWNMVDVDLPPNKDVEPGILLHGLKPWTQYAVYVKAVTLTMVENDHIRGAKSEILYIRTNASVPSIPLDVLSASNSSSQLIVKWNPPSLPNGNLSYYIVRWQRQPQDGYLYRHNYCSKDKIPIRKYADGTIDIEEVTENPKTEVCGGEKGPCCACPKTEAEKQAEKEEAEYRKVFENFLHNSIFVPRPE
Chain of Insulin-like growth factor 1 receptor (Homo sapiens) (P08069 741-1367 limits assumed): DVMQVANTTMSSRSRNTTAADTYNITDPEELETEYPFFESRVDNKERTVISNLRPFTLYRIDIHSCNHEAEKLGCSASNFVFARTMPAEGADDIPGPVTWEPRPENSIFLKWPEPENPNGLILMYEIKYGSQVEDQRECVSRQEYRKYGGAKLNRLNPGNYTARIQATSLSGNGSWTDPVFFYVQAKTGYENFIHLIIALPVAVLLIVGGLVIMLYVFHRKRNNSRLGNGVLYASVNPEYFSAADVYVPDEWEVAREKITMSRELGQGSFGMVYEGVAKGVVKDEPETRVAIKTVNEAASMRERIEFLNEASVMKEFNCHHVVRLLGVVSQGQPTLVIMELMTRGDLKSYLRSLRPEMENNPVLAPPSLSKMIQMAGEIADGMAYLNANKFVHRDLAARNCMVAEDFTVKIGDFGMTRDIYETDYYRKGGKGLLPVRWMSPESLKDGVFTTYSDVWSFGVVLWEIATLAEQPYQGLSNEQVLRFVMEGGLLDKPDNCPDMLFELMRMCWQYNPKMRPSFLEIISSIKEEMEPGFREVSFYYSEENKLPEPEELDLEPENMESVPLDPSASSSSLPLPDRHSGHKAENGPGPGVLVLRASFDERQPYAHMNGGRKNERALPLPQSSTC

[4] = target: Protein-tyrosine kinase 2-beta (Homo sapiens) (UniProt Q14289); experiment: Residual activity of PYK2 at 10 uM by microplate scintillation counting
[5] = target: T2, Serine/threonine-protein kinase BRSK1 (Homo sapiens) (UniProt Q8TDC3); experiment: Residual activity of BRSK1 at 10 uM by microplate scintillation counting
T2 sequence (whole entry): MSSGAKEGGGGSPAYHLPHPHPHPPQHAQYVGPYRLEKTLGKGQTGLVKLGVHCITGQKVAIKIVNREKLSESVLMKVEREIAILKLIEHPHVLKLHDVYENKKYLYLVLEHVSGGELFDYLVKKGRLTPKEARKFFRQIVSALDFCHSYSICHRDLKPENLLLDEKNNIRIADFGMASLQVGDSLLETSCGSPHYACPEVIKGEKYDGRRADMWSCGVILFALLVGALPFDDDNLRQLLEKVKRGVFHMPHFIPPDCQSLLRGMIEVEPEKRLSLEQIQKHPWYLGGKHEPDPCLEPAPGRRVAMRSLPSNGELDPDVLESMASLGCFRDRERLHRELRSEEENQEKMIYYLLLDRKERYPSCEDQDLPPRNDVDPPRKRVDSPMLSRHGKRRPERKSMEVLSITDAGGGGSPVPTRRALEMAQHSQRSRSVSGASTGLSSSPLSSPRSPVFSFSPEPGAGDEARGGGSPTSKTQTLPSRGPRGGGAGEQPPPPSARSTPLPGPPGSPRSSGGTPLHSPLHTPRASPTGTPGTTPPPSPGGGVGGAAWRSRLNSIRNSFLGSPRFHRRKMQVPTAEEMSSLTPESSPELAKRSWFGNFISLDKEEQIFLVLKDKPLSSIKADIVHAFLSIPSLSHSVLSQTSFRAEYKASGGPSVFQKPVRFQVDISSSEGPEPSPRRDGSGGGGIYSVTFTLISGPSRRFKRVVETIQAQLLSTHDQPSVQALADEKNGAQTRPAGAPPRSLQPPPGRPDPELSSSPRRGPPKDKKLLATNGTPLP

[6] = target: T3, MAP kinase-activated protein kinase 5 (Homo sapiens) (UniProt Q8IW41); experiment: Residual activity of MAPKAPK5 at 1 uM by microplate scintillation counting
T3 sequence (whole entry): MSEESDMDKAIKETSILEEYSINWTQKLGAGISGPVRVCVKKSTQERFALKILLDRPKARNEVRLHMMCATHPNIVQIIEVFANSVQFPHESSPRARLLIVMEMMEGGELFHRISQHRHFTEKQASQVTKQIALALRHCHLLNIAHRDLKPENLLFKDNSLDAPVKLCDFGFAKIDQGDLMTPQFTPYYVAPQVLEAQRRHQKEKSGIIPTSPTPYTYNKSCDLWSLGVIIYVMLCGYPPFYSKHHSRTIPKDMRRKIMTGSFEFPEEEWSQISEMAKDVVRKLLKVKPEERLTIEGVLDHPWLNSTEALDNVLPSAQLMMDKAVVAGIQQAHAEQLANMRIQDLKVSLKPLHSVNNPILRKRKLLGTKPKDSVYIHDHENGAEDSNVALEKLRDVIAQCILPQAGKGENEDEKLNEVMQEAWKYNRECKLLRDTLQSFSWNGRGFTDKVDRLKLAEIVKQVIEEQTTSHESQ

[7] = target: G protein-coupled receptor kinase 4 (Homo sapiens) (UniProt P32298); experiment: Residual activity of GRK4 at 10 uM by microplate scintillation counting
Chain of G protein-coupled receptor kinase 4 (Homo sapiens) (P32298 whole entry, looked up): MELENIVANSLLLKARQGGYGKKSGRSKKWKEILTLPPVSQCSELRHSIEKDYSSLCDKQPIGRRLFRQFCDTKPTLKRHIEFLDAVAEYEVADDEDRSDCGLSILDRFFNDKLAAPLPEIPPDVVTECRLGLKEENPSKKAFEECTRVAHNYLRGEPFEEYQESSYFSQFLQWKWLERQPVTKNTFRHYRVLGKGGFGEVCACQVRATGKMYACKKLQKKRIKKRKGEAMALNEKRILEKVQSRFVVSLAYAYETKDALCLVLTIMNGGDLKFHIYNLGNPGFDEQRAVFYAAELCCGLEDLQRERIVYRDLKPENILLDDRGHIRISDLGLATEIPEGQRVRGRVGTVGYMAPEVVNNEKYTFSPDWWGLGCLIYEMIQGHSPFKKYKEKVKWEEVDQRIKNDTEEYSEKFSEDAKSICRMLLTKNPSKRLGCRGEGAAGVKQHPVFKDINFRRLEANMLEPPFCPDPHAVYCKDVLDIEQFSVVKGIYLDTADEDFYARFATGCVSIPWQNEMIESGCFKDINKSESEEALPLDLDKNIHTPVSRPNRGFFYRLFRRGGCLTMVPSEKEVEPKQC

[8] = target: Mitogen-activated protein kinase kinase kinase kinase 4 (Homo sapiens) (UniProt O95819); experiment: Residual activity of MAP4K4 at 0.1 uM by microplate scintillation counting
Chain of Mitogen-activated protein kinase kinase kinase kinase 4 (Homo sapiens) (O95819 2-1239 limits assumed): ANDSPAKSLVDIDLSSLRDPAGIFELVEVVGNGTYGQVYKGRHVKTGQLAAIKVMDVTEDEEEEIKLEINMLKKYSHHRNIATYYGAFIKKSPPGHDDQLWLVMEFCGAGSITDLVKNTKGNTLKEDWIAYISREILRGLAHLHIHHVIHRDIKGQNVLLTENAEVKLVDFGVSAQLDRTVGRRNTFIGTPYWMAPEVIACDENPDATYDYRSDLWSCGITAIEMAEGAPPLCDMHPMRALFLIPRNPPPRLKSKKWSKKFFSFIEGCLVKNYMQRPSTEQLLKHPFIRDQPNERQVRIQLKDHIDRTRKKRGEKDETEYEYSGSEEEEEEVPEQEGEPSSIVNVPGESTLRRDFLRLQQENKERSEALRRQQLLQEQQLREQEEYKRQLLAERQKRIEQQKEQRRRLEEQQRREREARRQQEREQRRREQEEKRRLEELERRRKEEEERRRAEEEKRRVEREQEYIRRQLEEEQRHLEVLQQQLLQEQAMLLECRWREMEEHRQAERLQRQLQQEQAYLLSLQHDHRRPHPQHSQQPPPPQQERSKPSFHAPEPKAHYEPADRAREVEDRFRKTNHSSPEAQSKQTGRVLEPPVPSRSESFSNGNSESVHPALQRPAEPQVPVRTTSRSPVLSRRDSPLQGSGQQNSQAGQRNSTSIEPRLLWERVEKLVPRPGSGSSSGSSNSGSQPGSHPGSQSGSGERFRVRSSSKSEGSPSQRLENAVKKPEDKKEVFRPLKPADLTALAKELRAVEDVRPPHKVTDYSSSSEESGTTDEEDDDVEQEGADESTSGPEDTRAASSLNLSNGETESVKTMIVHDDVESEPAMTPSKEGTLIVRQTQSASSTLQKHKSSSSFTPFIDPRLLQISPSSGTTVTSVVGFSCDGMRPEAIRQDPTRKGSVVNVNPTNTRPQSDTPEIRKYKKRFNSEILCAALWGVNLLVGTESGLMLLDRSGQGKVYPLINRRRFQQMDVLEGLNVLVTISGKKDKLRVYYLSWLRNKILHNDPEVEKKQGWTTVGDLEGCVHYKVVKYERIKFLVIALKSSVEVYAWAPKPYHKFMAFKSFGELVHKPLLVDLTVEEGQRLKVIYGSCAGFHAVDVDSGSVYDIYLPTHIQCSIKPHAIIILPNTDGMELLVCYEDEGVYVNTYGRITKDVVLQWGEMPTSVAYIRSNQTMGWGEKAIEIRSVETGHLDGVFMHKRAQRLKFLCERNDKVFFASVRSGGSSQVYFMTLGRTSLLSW

[9] = target: Serine/threonine-protein kinase Chk2 (Homo sapiens) (UniProt O96017); experiment: Residual activity of CHK2 at 10 uM by microplate scintillation counting
[10] = target: Serine/threonine-protein kinase MARK1 (Homo sapiens) (UniProt Q9P0L2); experiment: Residual activity of MARK1 at 1 uM by microplate scintillation counting
Chain of Serine/threonine-protein kinase MARK1 (Homo sapiens) (Q9P0L2 whole entry, looked up): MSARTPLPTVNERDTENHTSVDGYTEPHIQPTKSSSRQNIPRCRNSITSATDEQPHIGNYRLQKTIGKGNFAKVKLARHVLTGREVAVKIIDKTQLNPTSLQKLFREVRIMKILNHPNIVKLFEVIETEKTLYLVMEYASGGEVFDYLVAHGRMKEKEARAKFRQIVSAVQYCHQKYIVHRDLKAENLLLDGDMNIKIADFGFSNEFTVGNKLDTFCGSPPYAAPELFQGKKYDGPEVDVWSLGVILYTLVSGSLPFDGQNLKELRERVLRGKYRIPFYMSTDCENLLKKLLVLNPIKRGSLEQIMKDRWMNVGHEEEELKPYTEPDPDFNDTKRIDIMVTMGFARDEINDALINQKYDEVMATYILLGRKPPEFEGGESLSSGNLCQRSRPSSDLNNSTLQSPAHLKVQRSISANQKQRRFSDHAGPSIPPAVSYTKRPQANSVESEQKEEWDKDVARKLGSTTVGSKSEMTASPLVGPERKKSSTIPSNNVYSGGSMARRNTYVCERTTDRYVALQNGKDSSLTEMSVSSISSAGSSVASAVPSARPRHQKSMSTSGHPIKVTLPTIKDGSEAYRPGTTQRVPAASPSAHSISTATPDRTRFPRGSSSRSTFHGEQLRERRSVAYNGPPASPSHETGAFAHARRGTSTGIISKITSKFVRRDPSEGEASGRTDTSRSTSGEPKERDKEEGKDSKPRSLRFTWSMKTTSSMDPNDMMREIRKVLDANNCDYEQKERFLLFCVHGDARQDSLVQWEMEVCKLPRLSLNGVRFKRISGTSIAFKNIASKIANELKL

[11] = target: T4, Mitogen-activated protein kinase 12 (Homo sapiens) (UniProt P53778); experiment: Residual activity of p38-gamma at 0.1 uM by microplate scintillation counting
T4 sequence (whole entry): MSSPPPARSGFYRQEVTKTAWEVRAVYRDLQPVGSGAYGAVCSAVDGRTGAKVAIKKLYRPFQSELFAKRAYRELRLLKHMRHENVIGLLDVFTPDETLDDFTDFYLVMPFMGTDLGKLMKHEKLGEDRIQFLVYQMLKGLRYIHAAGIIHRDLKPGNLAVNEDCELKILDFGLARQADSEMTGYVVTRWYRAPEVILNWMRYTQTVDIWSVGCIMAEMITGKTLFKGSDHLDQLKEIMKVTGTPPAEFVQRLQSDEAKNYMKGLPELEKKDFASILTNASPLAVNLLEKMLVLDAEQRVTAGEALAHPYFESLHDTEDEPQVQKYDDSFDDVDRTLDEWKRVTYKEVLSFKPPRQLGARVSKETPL

[12] = target: Serine/threonine-protein kinase PAK 3 (Homo sapiens) (UniProt O75914); experiment: Residual activity of PAK3 at 10 uM by microplate scintillation counting
Chain of Serine/threonine-protein kinase PAK 3 (Homo sapiens) (O75914 whole entry, looked up): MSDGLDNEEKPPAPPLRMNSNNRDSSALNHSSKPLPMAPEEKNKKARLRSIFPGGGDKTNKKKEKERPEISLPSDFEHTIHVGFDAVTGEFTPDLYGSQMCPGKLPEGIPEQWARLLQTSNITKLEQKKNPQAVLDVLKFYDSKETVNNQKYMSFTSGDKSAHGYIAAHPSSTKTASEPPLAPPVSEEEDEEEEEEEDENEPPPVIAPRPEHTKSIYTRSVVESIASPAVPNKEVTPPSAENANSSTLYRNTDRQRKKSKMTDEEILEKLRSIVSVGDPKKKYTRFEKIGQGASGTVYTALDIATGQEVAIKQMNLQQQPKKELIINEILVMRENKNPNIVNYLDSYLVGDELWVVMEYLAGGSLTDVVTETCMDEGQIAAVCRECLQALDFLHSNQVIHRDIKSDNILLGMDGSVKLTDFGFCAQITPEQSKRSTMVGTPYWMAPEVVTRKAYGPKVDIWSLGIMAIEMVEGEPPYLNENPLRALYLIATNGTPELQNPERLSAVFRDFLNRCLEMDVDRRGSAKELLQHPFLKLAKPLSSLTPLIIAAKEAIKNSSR

residual activity [1]	residual activity [2]	residual activity [3]	residual activity [4]	residual activity [5]	residual activity [6]	residual activity [7]	residual activity [8]	residual activity [9]	residual activity [10]	residual activity [11]	residual activity [12]	Structure (SMILES)
114%	75%	98%	113%	99%	90%	159%	86%	17%	86%	86%	56%	COc1cc2c(Oc3ccc(-c4nc5ccccc5s4)cc3)ncnc2cc1OCCCN1CCCC1
104%	51%	46%	54%	103%	90%	154%	83%	9%	90%	86%	39%	COc1cc2c(Oc3ccc(-c4nc5ccccc5s4)cc3F)ncnc2cc1OCCCN1CCN(C)CC1
91%	54%	100%	95%	100%	107%	171%	85%	11%	86%	93%	43%	COc1cc2c(Oc3ccc(-c4nc5ccccc5s4)cc3)ncnc2cc1OCCCN1CCN(C)CC1
